These results are taken from patent US20110177943A1, “Benzyl-Substituted Thiadiazolyloxyphenylamidinium Salts” (priority 2009, published 2011).

Counter-ions that a name gives are not always drawn. Like-named read-outs stand apart in the source and are kept apart here. Marks after values point to notes of the source that are not given here. A value given as a limit tells only on which side of the number the result lay.

The nature of series [1]: logP by HPLC on reversed-phase columns (EEC directive 79/831 Annex V.A8). Format: physicochemical. Particulars: for chromatographic logP: [b] LC-MS determination in the acidic range at pH 2.7, 0.1% aqueous formic acid and acetonitrile, read-out: log p. As for the experimental part: Calibration was carried out using unbranched alkan-2-ones (having from 3 to 16 carbon atoms) with known logP values (the logP values were determined by the retention times using linear interpolation between two successive alkanones).

The subject of series [2] is Phakopsora pachyrhizi. In words: Phakopsora Test (soya beans)/Protective. Format: in vivo. Particulars: protective, active compound concentration 100 ppm, evaluation 11 days after inoculation. As for the experimental part:
Phakopsora Test (soya beans)/Protective
One day after spraying, the plants are inoculated with an aqueous spore suspension of the soya bean rust pathogen (Phakopsora pachyrhizi). The plants are placed in a greenhouse at 20° C. and a rel. atmospheric humidity of 80%.
Evaluation is carried out 11 days after the inoculation.

Series [3] relates to Fusarium proliferatum. Description: Production of Fumonisin FB1 by Fusarium proliferatum. Format: cell-based. Particulars: 120 h, read-out: inhibition of fumonisin FB1 production. The protocol: Production of Fumonisin FB1 by Fusarium proliferatum
The compounds were tested in microtitre plates at 5 concentrations of from 0.08 μM to 50 μM in a fumonisin-inducing liquid medium (0.5 g of malt extract, 1 g of yeast extract, 1 g of bactopeptone, 20 g of fructose, 1 g of KH2PO4, 0.3 g of MgSO47 H2O, 0.3 g of KCl, 0.05 g of ZnSO47 H2O and 0.01 g of CuSO4×5 H2O per litre) with DMSO (0.5%). Inoculation was carried out using a concentrated spore suspension of Fusarium proliferatum at a final concentration of 2000 spores/ml.
The plate was incubated at 20° C. and high atmospheric humidity for 5 days.
At the beginning and after 5 days, the OD was measured at OD620 (repeated measurements: 3×3 measurements per well) to calculate the inhibition of growth.
After 5 days, a sample of the liquid medium was removed and diluted 1:1000 with 50% strength acetonitrile. The concentration of FB1 of the diluted samples was analysed by HPLC-MS/MS, and the measured values were used to calculate the inhibition of fumonisin FB1 production compared to an active compound-free control. […]

In series [4] the test system is Sphaerotheca fuliginea. Conditions: cucumber, protective, active compound concentration 500 ppm, evaluation 7 days after inoculation. The protocol:
Sphaerotheca Test (cucumber)/protective
1 day after the treatment, the plants are inoculated with a spore suspension of Sphaerotheca fuliginea. The plants are then placed in a greenhouse at a relative atmospheric humidity of 70% and a temperature of 23° C.
Evaluation is carried out 7 days after the inoculation.

On to `CCN(C)C=Nc1cc(C)c(Oc2nc(Cc3ccc(Cl)cc3)ns2)cc1C.O=S(=O)(O)O` [Example 1, N′-(4-{[3-(4-chlorobenzyl)-1,2,4-thiadiazol-5-yl]oxy}-2,5-dimethylphenyl)-N-ethyl-N-methylimidoformamidesulphate], for which, in series [1] (pH 2.7), the log p was 1.88^[b].

Usually inhibition stands for the percentage by which the read-out fell short of the control. On to `Br.CCN(C)C=Nc1cc(C)c(Oc2nc(Cc3ccc(Cl)cc3)ns2)cc1C` [Example 2, N′-(4-{[3-(4-chlorobenzyl)-1,2,4-thiadiazol-5-yl]oxy}-2,5-dimethylphenyl)-N-ethyl-N-methylimidoformamide hydrobromide], for which the chromatographic logP in series [1] (reversed-phase HPLC column) worked out at 1.83. The efficacy in series [2] is listed as at least 80%. Also, in series [3], the inhibition at 50 µM is over 80%.

For `CCN(C)C=Nc1cc(C)c(Oc2nc(Cc3ccc(Cl)cc3)ns2)cc1C` [Example 3, N′-(4-{[3-(4-Chlorobenzyl)-1,2,4-thiadiazol-5-yl]oxy}-2,5-dimethylphenyl)-N-ethyl-N-methylimidoformamide hydrochloride (1:1)], in series [1], the chromatographic logP amounted to 2.03.

Take “N′-(4-{[3-(4-chlorobenzyl)-1,2,4-thiadiazol-5-yl]oxy}-2,5-dimethylphenyl)-N-ethyl-N-methylimido-formamide-1,2-benzothiazol-3(2H)-one 1,1-dioxide [Example 4]”: the efficacy in series [4] was at least 70%.
